Results on three compounds are retold here after US6399662B1, “Method and composition for the treatment of diarrhea and gastrointestinal spasms” (University of Florida, priority 2000, dated 2002).

Data set [1] concerns stress-induced irritable bowel syndrome in rats. The data set can be described thus: Stress-induced irritable bowel syndrome in rats. Type of data set: in vivo, rat (Sprague-Dawley). Conditions: for stool output: 30 min before stress, 6-h collection period; for % reduction (stool output): vs control (0 mg/kg), (1.0-T/C) × 100. As for the experimental part: Male Sprague-Dawley rats (200-350 g, Harlan Sprague-Dawley, Indianapolis, Ind.) were housed in hanging wire cages in a temperature- and humidity-controlled room with a 12hour light/dark cycle; the animals were fasted overnight (unless non-fasted rats were utilized in experiments involving PO administration) and allowed free access to water. Animal care and experimental procedures were approved by the Institutional Animal Care and Use Committee. A typical experiment involved 20 rats: 5 untreated controls and 5 pretreated with polyamine analogues at each of three doses as either a SC injection or a PO gavage 30 min prior to commencement of the stress. All animals were then housed in individual polycarbonate cages containing a clear 70×50 mm Pyrex crystallization dish inverted in the center. To begin the stress, water was added to each cage to within 0.5 cm of the top of the Pyrex dish. The fecal output of the animals was recorded at 30-min intervals for a 6-h period, during which they received no food or water. Stool output was expressed as the number of fecal pellets excreted over the 6-h collection period. Percent reduction was calculated by dividing the mean value from the treated animals (T) by the mean value from the control animals (C), subtracting the resulting quotient from 1.0, and multiplying by 100 [i.e., (1.0−T/C)×100].

Data set [2] relates to castor oil-induced diarrhea in rats. The data set is described as follows: Castor oil-induced diarrhea in rats. Type of data set: in vivo, rat (Sprague-Dawley). Conditions: for weight loss: 30 min before castor oil 5 mL/kg, 6-h period; for stool output: 30 min before castor oil, 6-h collection period; for % reduction (weight loss) / % reduction (stool output): vs control (0 mg/kg); for % reduction (weight loss): (1.0-T/C) × 100. As for the experimental part: Male Sprague-Dawley rats (350-400 g, Harlan Sprague-Dawley, Indianapolis, Ind.) were fasted overnight in hanging wire cages and allowed free access to water. A typical experiment involved 20 rats: 5 untreated controls and 5 pretreated with polyamine analogues at each of three doses (typically equivalent on a molar basis to 1, 5, 10, or 25 mg/kg of DEHSPM) as either a sc injection or a po gavage 30 min prior to castor oil. All animals were then challenged with castor oil (purchased from a local drugstore) as a gastric gavage of 5 mL/kg of body weight at t=0 and monitored for the onset and duration of diarrhea at 30-min intervals for a 6-h period during which they received no food or water (Eaker, E. Y.; Bixler, G. B.; Mathias, J. R., J. Pharm Exp. Ther. 1988, 246, 786-789). Onset of diarrhea for the control rats was between 30 and 90 min and lasted for at least 6 h. The animal weight and stool weight were recorded at 2, 4, and 6 h.

In the next data set the test system is small intestine. Conditions: rats; previously reported; cited from earlier work.
The conditions of data set [3]: dog; compared with 2-3 weeks in mice; cited from earlier work.
For data set [4] the following is noted: mice; HSPM formed by N-deethylation of DEHSPM; cited from earlier work.
The mark [5] stands for this setting: sc 0.03125 mg/kg (0.0726 μmol/kg).

Where a name gives a salt, the structure may show the parent alone.

As to `CCNCCCN[C@H]1CC[C@H](NCCCNCC)CC1` [CHX(3,4,3)-trans, N,N′-Bis[3-(ethylamino)propyl]-trans-1,4-cyclohexanediamine tetrahydrochloride], the “fecal output after oral administration (in words)” value in data set [1] (oral, doses ≧5 mg/kg, P≦0.001) is “diminished fecal output”. Besides, the “stool output” value in data set [1] (setting [5]) is reported as 5.4 ± 2.1 number of fecal pellets; in data set [1] (sc 0.0625 mg/kg (0.145 μmol/kg)), 2.2 ± 1.3 number of fecal pellets; in data set [1] (sc 0.125 mg/kg (0.29 μmol/kg)) it was 0.6 ± 0.9 number of fecal pellets; in data set [1] (sc 0.25 mg/kg (0.58 μmol/kg)), 0 ± 0 number of fecal pellets; in data set [1] (sc 0.5 mg/kg (1.16 μmol/kg)), 0 ± 0 number of fecal pellets; in data set [1] (sc 0.99 mg/kg (2.3 μmol/kg)) it was 0 ± 0 number of fecal pellets. The stool output in data set [2] (sc 0.0078 mg/kg) is 3.6 ± 1.3 g of stool excreted per 350 g of rat weight; in data set [2] (sc 0.0156 mg/kg) it was 0.4 ± 0.9 g of stool excreted per 350 g of rat weight; in data set [2] (sc 0.03125 mg/kg), 0 ± 0 g of stool excreted per 350 g of rat weight; in data set [2] (sc 0.125 mg/kg), 0 ± 0 g of stool excreted per 350 g of rat weight; in data set [2] (sc 0.25 mg/kg), 0 ± 0 g of stool excreted per 350 g of rat weight; in data set [2] (sc 0.5 mg/kg), 0 ± 0 g of stool excreted per 350 g of rat weight. The stool output in data set [2] (sc 0.625 mg/kg (0.145 μmol/kg)), in data set [2] (sc 0.99 mg/kg), in data set [2] (sc 4.97 mg/kg) and in data set [2] (sc 24.87 mg/kg) was 0 ± 0 g of stool excreted per 350 g of rat weight each time. Further, the “% reduction (stool output)” value stood at 52.2% in data set [1] (sc 0.03125 mg/kg); 80.5% in data set [1] (sc 0.0625 mg/kg); 94.7% in data set [1] (sc 0.125 mg/kg); 100% in data set [1] (sc 0.25 mg/kg); 100% in data set [1] (sc 0.5 mg/kg); 100% in data set [1] (sc 0.99 mg/kg). Further, the “% reduction (stool output)” value in data set [2] (sc 0.0156 mg/kg) amounted to 92%; in data set [2] (sc 0.03125 mg/kg), 100%; in data set [2] (sc 0.125 mg/kg) it was 100%; in data set [2] (sc 0.25 mg/kg), 100%; in data set [2] (sc 0.5 mg/kg), 100%; in data set [2] (sc 0.625 mg/kg (0.145 μmol/kg)), 100%. In addition, the “% reduction (stool output)” value in data set [2] (sc 0.99 mg/kg), in data set [2] (sc 4.97 mg/kg) and in data set [2] (sc 24.87 mg/kg) was 100% throughout. Also, in data set [1] (sc, doses ranging from 0.03 mg/kg to 0.99 mg/kg, all dose levels, P<0.001), the “reduction in fecal output (in words)” value was “significant reduction in fecal output”. Besides, the weight loss is 8.8 ± 1.2 g of weight lost per 350 g of rat weight in data set [2] (sc 0.0078 mg/kg (0.0181 μmol/kg)); 3.1 ± 1.2 g of weight lost per 350 g of rat weight in data set [2] (sc 0.0156 mg/kg (0.036 μmol/kg)); 4.2 ± 1.7 g of weight lost per 350 g of rat weight in data set [2] (setting [5]); 4.1 ± 0.7 g of weight lost per 350 g of rat weight in data set [2] (sc 0.125 mg/kg (0.29 μmol/kg)); 2.7 ± 0.7 g of weight lost per 350 g of rat weight in data set [2] (sc 0.25 mg/kg (0.58 μmol/kg)); 2.9 ± 0.1 g of weight lost per 350 g of rat weight in data set [2] (sc 0.5 mg/kg (1.16 μmol/kg)). The weight loss in data set [2] (sc 0.625 mg/kg (0.145 μmol/kg)) was 3.7 ± 0.8 g of weight lost per 350 g of rat weight; in data set [2] (sc 0.99 mg/kg (2.3 μmol/kg)), 2.7 ± 1.3 g of weight lost per 350 g of rat weight; in data set [2] (sc 4.97 mg/kg (11.6 μmol/kg)) it was 1.6 ± 1.1 g of weight lost per 350 g of rat weight; in data set [2] (sc 24.87 mg/kg (57.8 μmol/kg)) it was 0.8 ± 0.7 g of weight lost per 350 g of rat weight. Also, the “% reduction (weight loss)” value in data set [2] (sc 0.0078 mg/kg) was determined as 24%; in data set [2] (sc 0.0156 mg/kg) it was 73%; in data set [2] (sc 0.03125 mg/kg), 64%; in data set [2] (sc 0.125 mg/kg), 65%; in data set [2] (sc 0.25 mg/kg), 77%; in data set [2] (sc 0.5 mg/kg), 75%. Moreover, the “% reduction (weight loss)” value in data set [2] (sc 0.625 mg/kg (0.145 μmol/kg)) worked out at 68%; in data set [2] (sc 0.99 mg/kg), 77%; in data set [2] (sc 4.97 mg/kg), 86%; in data set [2] (sc 24.87 mg/kg), 93%. In data set [2] (sc doses of 0.0156 mg/kg to 24.9 mg/kg, P<0.001 for all doses), the “stool output relative to controls (in words)” value was “significantly decreased stool output”. Moreover, the “reduction in weight loss (in words)” value in data set [2] (sc, doses ranging from 0.0078 mg/kg to 24.9 mg/kg, all dose levels, P<0.005 to P<0.001) was “significant reduction in weight loss”.
Regarding `CCNCCCCNCCCCNCCCCNCC` [DEHSPM, N^1, N^14 diethylhomospermine], the “myoelectric activity and transit of the small intestine (in words)” value with small intestine is “inhibited”.
For `NCCCCNCCCCNCCCCN` [HSPM, homospermine], in data set [3], the “half life (in words)” value is given as “even longer”. Besides, the half life in data set [4] is listed as 2-3 weeks.
